What was measured:
[1] = test system: Salmonella typhimurium TA98, TA100, TA1535 and TA1537; test: Bacterial mutation test, Salmonella typhimurium; assay type: cell-based; details: up to 5000 μg/plate, with and without S-9
From the text: (§1) These conditions included treatments at concentrations up to […] (the maximum recommended concentration according to current regulatory guidelines), in the absence and in the presence of a rat liver metabolic activation system (S-9).

[2] = Pharmacokinetics of 5-MeO-DMT and bufotenine after inhalation; assay type: in vivo, human
[3] = test system: Escherichia coli WP2 uvrA pKM101; test: Bacterial mutation test, Escherichia coli; assay type: cell-based; details: up to 5000 pg/plate, with and without S-9
From the text: as §1

Structure (SMILES): COc1ccc2[nH]cc(CCN(C)C)c2c1 [5-MeO-DMT]
- Induction of mutation [1]: did not induce mutation
- Detectability in plasma ([2]; 3 hours after inhalation, 6-18 mg): no longer detectable
- Accumulation upon repeated administration ([2]; repeat within 1 to 4 hours): No accumulation
- Induction of mutation [3]: did not induce mutation

Source: patent US20240115549A1, “TREATMENT OF MENTAL DISORDERS” (GH Research Ireland Limited, priority 2022, published 2024)
